Data: US20230192717A1, “COMPOSITIONS AND METHODS OF MODULATING SHORT-CHAIN DEHYDROGENASE ACTIVITY” (RODEO THERAPEUTICS CORPORATION, priority 2020, published 2023)

Target: T1, recombinant 15-PGDH (Homo sapiens, UniProt P15428)
T1 sequence (P15428 1-266): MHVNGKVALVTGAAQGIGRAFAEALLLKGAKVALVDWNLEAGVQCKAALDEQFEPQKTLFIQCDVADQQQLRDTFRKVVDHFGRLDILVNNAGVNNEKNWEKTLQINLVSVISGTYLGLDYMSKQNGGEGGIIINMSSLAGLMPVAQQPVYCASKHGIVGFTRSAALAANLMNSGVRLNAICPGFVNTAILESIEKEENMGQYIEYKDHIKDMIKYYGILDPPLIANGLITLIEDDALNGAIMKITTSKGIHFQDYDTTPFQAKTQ
Experiment: inhibition of enzymatic activity of recombinant 15-PGDH in vitro
Format: biochemical
Conditions: recombinant human 15-PGDH
Excerpt: The Recombinant 15-PGDH is human unless otherwise specified.

Structure (SMILES) | IC50
COCC[S@@+]([O-])c1sc2nc(-c3ccc4cncnc4c3)cc(-c3ccnn3C)c2c1N [Compound 16, 2-[(R)-2-methoxyethanesulfinyl]-4-(1-methyl-1H-pyrazol-5-yl)-6-(quinazolin-7-yl)thieno[2,3-b]pyridin-3-amine] | < 2.5 nM
COCC[S@@+]([O-])c1sc2nc(-c3cnc(N)nc3)cc(C(C)C)c2c1N (stereo in doubt) [Compound 18, 5-{3-amino-2-[2-methoxyethanesulfinyl]-4-(propan-2-yl)thieno[2,3-b]pyridin-6-yl}pyrimidin-2-amine] | < 2.5 nM
COCC[S+]([O-])c1sc2nc(-c3cnc4nccnc4c3)cc(C3CCC3)c2c1N (centres unmarked) [Compound 7, 4-cyclobutyl-2-(2-methoxyethanesulfinyl)-6-{pyrido[2,3-b]pyrazin-7-yl}thieno[2,3-b]pyridin-3-amine] | < 2.5 nM
CC(C)c1cc(-c2cnc(NCCO)nc2)nc2sc([S@@+]([O-])C3CCC3)c(N)c12 [Compound 8] | > 10 nM
Cn1nccc1-c1cc(-c2cnc3ncccc3c2)nc2sc([S+]([O-])C3CCC3)c(N)c12 (centres unmarked) [Compound 12, 2-(cyclobutanesulfinyl)-4-(1-methyl-1H-pyrazol-5-yl)-6-(1,8-naphthyridin-3-yl)thieno[2,3-b]pyridin-3-amine] | < 2.5 nM
Cn1nccc1-c1cc(-c2ccc3nccnc3c2)nc2sc([S@+]([O-])C3CCC3)c(N)c12 [Compound 1, (R)-2-(cyclobutylsulfinyl)-4-(1-methyl-1H-pyrazol-5-yl)-6-(quinoxalin-6-yl)thieno[2,3-b]pyridin-3-amine] | < 2.5 nM
Cn1nccc1-c1cc(-c2ccc3cncnc3c2)nc2sc([S@+]([O-])C3CCC3)c(N)c12 [Compound 2, 2-[(R)-cyclobutanesulfinyl]-4-(1-methyl-1H-pyrazol-5-yl)-6-(quinazolin-7-yl)thieno[2,3-b]pyridin-3-amine] | < 2.5 nM
Cn1nccc1-c1cc(-c2ccc3ncncc3c2)nc2sc([S@+]([O-])C3CCC3)c(N)c12 [Compound 10, 2-[(R)-cyclobutanesulfinyl]-4-(1-methyl-1H-pyrazol-5-yl)-6-(quinazolin-6-yl)thieno[2,3-b]pyridin-3-amine] | < 2.5 nM
COCC[S@@+]([O-])c1sc2nc(-c3ccc4nccnc4c3)cc(-c3ccnn3C)c2c1N [Compound 4, 2-[(R)-2-methoxyethanesulfinyl]-4-(1-methyl-1H-pyrazol-5-yl)-6-(quinoxalin-6-yl)thieno[2,3-b]pyridin-3-amine] | < 2.5 nM
COCC[S@@+]([O-])c1sc2nc(-c3cnc4cnccn34)cc(-c3ccnn3C)c2c1N [Compound 13, (R)-6-(imidazo[1,2-a]pyrazin-3-yl)-2-((2-methoxyethyl)sulfinyl)-4-(1-methyl-1H-pyrazol-5-yl)thieno[2,3-b]pyridin-3-amine] | < 2.5 nM
COCC[S+]([O-])c1sc2nc(-c3cnc4ncccc4c3)cc(C3CCC3)c2c1N (centres unmarked) [Compound 6, 4-cyclobutyl-2-(2-methoxyethanesulfinyl)-6-(1,8-naphthyridin-3-yl)thieno[2,3-b]pyridin-3-amine] | < 2.5 nM
COCC[S+]([O-])c1sc2nc(-c3cnc4cccnc4c3)cc(-c3ccnn3C)c2c1N (centres unmarked) [Compound 3, 2-(2-methoxyethanesulfinyl)-4-(1-methyl-1H-pyrazol-5-yl)-6-(1,5-naphthyridin-3-yl)thieno[2,3-b]pyridin-3-amine] | < 2.5 nM
Cn1cc2cc(-c3cc(C4CC5(COC5)C4)c4c(N)c([S@+]([O-])C5CCC5)sc4n3)cnc2n1 [Compound 14, (R)-2-(cyclobutylsulfinyl)-6-(2-methyl-2H-pyrazolo[3,4-b]pyridin-5-yl)-4-(2-oxaspiro[3.3]heptan-6-yl)thieno[2,3-b]pyridin-3-amine] | < 2.5 nM
COCC[S@@+]([O-])c1sc2nc(-c3cnc4cnccn34)cc(C3CCC3)c2c1N [Compound 11, (R)-4-cyclobutyl-6-(imidazo[1,2-a]pyrazin-3-yl)-2-((2-methoxyethyl)sulfinyl)thieno[2,3-b]pyridin-3-amine] | < 2.5 nM

Further lines, results first:

IC50 | Structure (SMILES)
2.5 to 10 nM | Cn1nccc1-c1cc(-c2cnc3c(c2)CNCC3)nc2sc([S+]([O-])C3CCC3)c(N)c12 (centres unmarked) [Compound 31, 2-(cyclobutanesulfinyl)-4-(1-methyl-1H-pyrazol-5-yl)-6-(5,6,7,8-tetrahydro-1,6-naphthyridin-3-yl)thieno[2,3-b]pyridin-3-amine]
< 2.5 nM | COCC[S@@+]([O-])c1sc2nc(-c3ccc4nccnc4c3)cc(C(C)C)c2c1N (stereo in doubt) [Compound 24, 2-[2-methoxyethanesulfinyl]-4-(propan-2-yl)-6-(quinoxalin-6-yl)thieno[2,3-b]pyridin-3-amine]
> 10 nM | CC(C)c1cc(-c2cnc(N)nc2)nc2sc([S@@+]([O-])C3CCC3)c(N)c12 [Compound 21]
< 2.5 nM | COCC[S@@+]([O-])c1sc2nc(-c3cc(=O)n(C)cn3)cc(C(C)C)c2c1N [Compound 34, 6-{3-amino-2-[(R)-2-methoxyethanesulfinyl]-4-(propan-2-yl)thieno[2,3-b]pyridin-6-yl}-3-methyl-3,4-dihydropyrimidin-4-one]
> 10 nM | COCC[S+]([O-])c1sc2nc(-c3ccc4nccnc4c3)cc(C(C)C)c2c1N (single isomer, unassigned) [Compound 25, 2-[2-methoxyethanesulfinyl]-4-(propan-2-yl)-6-(quinoxalin-6-yl)thieno[2,3-b]pyridin-3-amine]
< 2.5 nM | CC(C)(C)c1cc(-c2cnc(N)nc2)nc2sc([S@+]([O-])C3CCC3)c(N)c12 [Compound 35, 5-{3-amino-4-tert-butyl-2-[(R)-cyclobutanesulfinyl]thieno[2,3-b]pyridin-6-yl}pyrimidin-2-amine]
> 10 nM | COCC[S@+]([O-])c1sc2nc(-c3cnc(N)nc3)cc(C(C)C)c2c1N (stereo in doubt) [Compound 19, 5-{3-amino-2-[2-methoxyethanesulfinyl]-4-(propan-2-yl)thieno[2,3-b]pyridin-6-yl}pyrimidin-2-amine]
< 2.5 nM | Cn1nccc1-c1cc(-c2cnc3ncccc3c2)nc2sc([S@+]([O-])C3CCC3)c(N)c12 (stereo in doubt) [Compound 26, 2-(cyclobutanesulfinyl)-4-(1-methyl-1H-pyrazol-5-yl)-6-(1,8-naphthyridin-3-yl)thieno[2,3-b]pyridin-3-amine]
< 2.5 nM | CNc1ncc(-c2cc(C(C)C)c3c(N)c([S@+]([O-])CCOC)sc3n2)cn1 [Compound 22, 5-{3-amino-2-[(R)-2-methoxyethanesulfinyl]-4-(propan-2-yl)thieno[2,3-b]pyridin-6-yl}-N-methylpyrimidin-2-amine]
< 2.5 nM | CC(C)c1cc(-c2cnc(N)nc2)nc2sc([S@+]([O-])C3CCC3)c(N)c12 [Compound 20]
> 10 nM | Cn1nccc1-c1cc(-c2cnc3ncccc3c2)nc2sc([S@@+]([O-])C3CCC3)c(N)c12 (stereo in doubt) [Compound 27, 2-(cyclobutanesulfinyl)-4-(1-methyl-1H-pyrazol-5-yl)-6-(1,8-naphthyridin-3-yl)thieno[2,3-b]pyridin-3-amine]
> 10 nM | CNc1ncc(-c2cc(C(C)C)c3c(N)c([S+]([O-])CCOC)sc3n2)cn1 (stereo in doubt) [Compound 23, 5-{3-amino-2-[(R)-2-methoxyethanesulfinyl]-4-(propan-2-yl)thieno[2,3-b]pyridin-6-yl}-N-methylpyrimidin-2-amine]
